How the values were obtained:
[1] = tested on: C57BL/6 mice; assay: Steroid-resistant AAD models (A. niger ± LPS), fluticasone propionate; assay type: in vivo; details: A. niger conidia ±30 ng LPS; daily treatment
Description: As shown in the severe eosinophilic and neutrophilic steroid-resistant AAD models of FIGS. 14A-14B, mice challenged with Aspergillus niger (AN) develop an asthma phenotype, here showing airway hyperresponsiveness (AHR), that is steroid (fluticasone propionate; FP, a commonly used steroid in asthma) resistant. Illustrated in FIG. 14A is an experimental timeline for assessing the effect of daily FP or vehicle (liposome: dilauroylphosphatidylcholine: DLPC) treatment on AHR. AHR was measured as a function of respiratory system resistance (RRS(cmH2O·s·ml^−1)) in C57BL/6 mice challenged intranasally (q.o.d.) with 4×10^5 A. niger (AN) conidia ±30 ng lipopolysaccharide (LPS) (FIG. 14B).

[2] = molecular target: T1, Dkk-1 (Mus musculus, UniProt O54908); assay: C. albicans-induced allergic airway disease in mice given Dkk-1 inhibitor intraperitoneally; assay type: in vivo, C57BL/6 mice
T1 construct: endogenous in cells; host or cells: C57BL/6 mice (whole animal; Dkk-1 released from platelets into plasma)
T1 sequence (O54908 32-272): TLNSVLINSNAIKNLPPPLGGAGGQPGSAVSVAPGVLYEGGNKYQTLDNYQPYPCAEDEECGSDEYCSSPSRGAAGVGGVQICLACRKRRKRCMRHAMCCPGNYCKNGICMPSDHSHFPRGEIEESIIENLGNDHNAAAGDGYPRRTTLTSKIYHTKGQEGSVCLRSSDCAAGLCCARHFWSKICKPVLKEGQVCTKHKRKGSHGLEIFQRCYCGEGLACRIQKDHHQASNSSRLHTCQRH
Description: The relevance of Dkk-1 to allergic airway disease induced by airway mycosis is unknown. Mice challenged with C. albicans were administered a Dkk-1 inhibitor (WAY 262611) previously shown to block this peptide in vivo (Chae et al., 2016b) (FIG. 2G).
(§1) C57BL/6 mice were administered 1×10^5 viable cells of C. albicans intranasally every other day for 8 challenges as shown in FIG. 1 (Porter et al., 2011a). Alternatively, C57BL/6 mice were given 4, 8, and 16 μmol candidalysin or 16 μmol of scrambled peptide control in PBS every other day for 8 challenges as shown in FIG. 8. Dkk-1 inhibitor (Chae et al., 2016a) (WAY262611, cat: 317700, Millipore Sigma, Burlington, MA. Dose: 10 or 20 μg/kg) and recombinant mouse Dkk-1 (5897-DK-010, R&D systems, Minneapolis, MN. Dose: 5 μg/kg) were given intraperitoneally at the same time and fungal challenge. Mice were analyzed 24 h after the final challenge for allergic airway disease endpoints.
(§2) Bronchial constriction in response to increasing dose of acetylcholine (Ach) injected intravenously, bronchoalveolar lavage fluid (BALF) cell differential counting, Dkk-1 quantitation from plasma, ELISA analysis of whole lung, flow cytometry analysis of Th cells and lung histopathology were assessed in response to C. albicans challenge as previously described (Porter et al., 2011a). Briefly, mice were anesthetized with etomidate and intravenously injected with acetylcholine via tail vein to assess AHR as quantified by measuring respiratory system resistance (RRS). Total BALF cells were collected by lavaging whole lung, total cells were enumerated and differential cell counting was performed on modified Giemsa-stained cytospin preparations. Plasma was harvested by retro-orbital bleeding and anti-coagulated by 10% 0.5M EDTA (Thermofisher scientific, Waltham MA). Lungs were harvested and processed as follows. Lungs were cut into small pieces and incubated in digestion buffer (2 mg/ml collagenase (#LS004177, Worthington), 0.04 mg/ml DNAse (#10104159001, Sigma) 1, 20% FBS in HBSS) for 1 h at 37° C. after which they were deaggregated by pressing through a […] nylon mesh and centrifuged at 400×g for 5 minutes at 4° C. Supernatants were discarded, and 1.5 mL of ACK (Thermofisher scientific, Waltham MA) was added and incubated for 3 min at room temperature for erythrocyte lysis. ACK was then neutralized with 7.5 mL of complete RPMI-1640 (Corning, NY), with 10% FBS and 1% Pen Strep, Gibco, Waltham MA). The resulting leukocyte preparations were centrifuged and prepared for flow cytometry analysis or ELISA.
Cell culture supernatants were analyzed for cytokines by standard ELISA after comparison to recombinant standard. IL-4 (Clone 11B11 and 554390 BD Biosciences, San Jose, CA), IL-5, IL-13 (DY405, DY413, R&D systems, Minneapolis, MN), IL-17 (BMS2017, Thermofisher scientific, Waltham MA), IFN-7 (555142, BD Biosciences, San Jose, CA), IL-1, IL-6, TNF (ab210895, ab213749 and ab212073, Abcam, Cambridge MA) were used as antibodies pairs and capture signals were amplified using Streptavidin-horseradish peroxidase conjugate (51-9002813, BD Biosciences, San Jose, CA). The plate was further developed using TMB substrate solution (N301, Thermofisher scientific, Waltham MA) and detected at the absorbance wavelength of 450 nm.
Total lung cells isolated above were stained with Live/Dead Fix Blue (L34961, Thermofisher scientific, Waltham MA), CD45, CD3, CD4 (103122, 100222, 100412, Biolegend, San Diego, CA). Cells were separated into 3 groups, then permeabilized and fixed using Transcription Factor Buffer Set (562574, BD Biosciences, San Jose, CA), and stained individually for T-bet, GATA3 or RORγt (561265, 560074, 562607, BD Biosciences, San Jose, CA). For megakaryocyte staining, total lung cells were stained with Live/Dead Fix Blue and CD41, CXCR4 (133927, 146507, Biolegend, San Diego, CA), Dkk-1 (BAM1765, R&D systems, Minneapolis, MN) and PE-streptavidin (405203, Biolegend, San Diego, CA). […]

[3] = molecular target: T1, Dkk-1; assay: Fungal experimental asthma due to Aspergillus niger, Dkk-1 antagonist IN or IP; assay type: in vivo, C57BL/6 mice
Description: C57BL/6 mice (4-6 weeks old) were challenged every second day with 400,000 viable conidia of AN while at the same time receiving a Dkk-1 antagonist (WAY262611) intranasally (IN) or intraperitoneally (IP) for 14 days. Airway hyperresponsiveness as assessed by enhanced increases in respiratory system resistance in response to increasing doses of acetylcholine chloride injected intravenously were determined as compared to PBS control mice (blue line). […] Thus, regardless of the fungus used, either Candida albicans or A. niger as shown herein, Dkk-1 can induce AHR. Statistics: IP versus IN or AN lines: P<0.05.

[4] = tested on: Human platelets; assay: Dkk-1 release from human platelets stimulated overnight at 4° C. or 37° C.; assay type: cell-based; details: overnight at both 4° C. and 37° C.; versus unstimulated platelets
Description: To investigate agents driving Dkk-1 release by platelets, human platelets were stimulated with lipopolysaccharide (LPS), thrombin, prothrombin (ProThrom), proteinase of Aspergillus melleus (PAM), or candidalysin (C. Lysin) overnight at 4° C. (FIG. 13A) or 37° C. (FIG. 13B). Unstimulated human platelets served as a control (platelets). Following stimulation, Dkk-1 concentration in the supernatant was quantified.

[5] = tested on: C57BL/6 mice; assay: Recombinant mouse Dkk-1 i.p. in ece1Δ/Δ C. albicans-challenged mice; assay type: in vivo
Description: To confirm, synthetic mouse Dkk-1 was administered to mice challenged with ece1Δ/Δ C. albicans (FIG. 3A). […] Dkk-1 alone had no effect on any index of allergic airway disease when administered through the intraperitoneal route (data not shown). Thus, in some aspects, Dkk-1 may be an important mediator of lung Th2 cell responses (Chae et al., 2016b), and may be equally important for the generation of Th17 cell responses in the context of airway mycosis. These findings further confirm that Dkk-1 is essential for the control of C. albicans growth in the lung.
as §1, §2

[6] = ece1Δ/Δ C. albicans-challenged mice

CCC(=O)O[C@]1(C(=O)SCF)[C@H](C)C[C@H]2[C@@H]3C[C@H](F)C4=CC(=O)C=C[C@]4(C)[C@@]3(F)[C@@H](O)C[C@@]21C [FP, fluticasone propionate]
airway hyperresponsiveness [1]: exacerbate

NCC1CCN(c2nccc(-c3ccc4ccccc4c3)n2)CC1 [WAY 262611]
lung fungal burdens ([2]; C. albicans-challenged mice): markedly elevated
BALF eosinophilia ([2]; C. albicans-challenged mice, 10 or 20 μg/kg i.p.): most notably reducing
BALF inflammatory cell recruitment ([2]; C. albicans-challenged mice, 10 or 20 μg/kg i.p., dose-dependent): progressively reduced
secretion of type 2 cytokines (IL-4, IL-5, IL-13) from whole lung ([2]; C. albicans-challenged mice, ELISA): suppression
airway hyper-responsiveness ([2]; C. albicans-challenged mice, inhibitor 10 or 20 μg/kg i.p., dose-dependent, 24 h after final challenge): progressively reduced
secretion of IL-1β, IL-6 and TNF ([2]; C. albicans-challenged mice, lung, ELISA): not significantly affected
secretion of IL-17 ([2]; C. albicans-challenged mice, whole lung, ELISA): inhibited
recruitment to whole lung of GATA3+ Th2 and RORγt+ Th17 cells ([2]; flow cytometry, correlated with inhibitor dose): decreased recruitment
airway hyperresponsiveness (AHR) in fungal experimental asthma due to Aspergillus niger ([3]; FIG. 16 legend, route not stated): abrogates
AHR induced by AN ([3]; IP route (systemic), 14 days, P<0.05 versus IN or AN): abrogates

thrombin
Dkk-1 release by platelets [4]: significantly increased

B1: Dkk-1: recombinant mouse Dkk-1 (5897-DK-010, R&D systems), Wnt pathway antagonist peptide (protein, UniProt O54908 32-272, looked up)
Dickkopf-related protein 1: TLNSVLINSNAIKNLPPPLGGAGGQPGSAVSVAPGVLYEGGNKYQTLDNYQPYPCAEDEECGSDEYCSSPSRGAAGVGGVQICLACRKRRKRCMRHAMCCPGNYCKNGICMPSDHSHFPRGEIEESIIENLGNDHNAAAGDGYPRRTTLTSKIYHTKGQEGSVCLRSSDCAAGLCCARHFWSKICKPVLKEGQVCTKHKRKGSHGLEIFQRCYCGEGLACRIQKDHHQASNSSRLHTCQRH
any index of allergic airway disease ([5]; Dkk-1 alone, intraperitoneal route, data not shown): no effect
fungal lung burdens [5, 6]: significantly reduced
recruitment of inflammatory cells, especially eosinophils, to the airways [5, 6]: markedly enhanced
recruitment to lung of GATA3+ Th2 and RORγt+ Th17 cells [5, 6]: markedly increase
secretion of innate pro-inflammatory cytokines [5, 6]: did not influence
secretion of lung Th2 cytokines, especially IL-4, but also IL-17 [5, 6]: markedly enhanced
airway hyper-responsiveness ([5]; ece1Δ/Δ C. albicans-challenged mice, 5 μg/kg i.p.): significantly enhanced

From patent publication US20240350491A1, “METHODS AND COMPOSITIONS FOR IMMUNE CONTROL THROUGH DICKKOPF-1” (Baylor College of Medicine, priority 2021, published 2024)
